Results: patent US20230142274A1 (SIMCERE PHARMACEUTICAL CO., LTD., priority 2020, published 2023)

Legend:
WI-38 cells = test: Inhibition of human WI-38 embryonic lung cell proliferation (Cell-Titer Glo); format: cell-based; details: Homo sapiens, 72 h, 3 days incubation, read-out: Anti-Proliferative Activity Against WI-38 cells IC50
Protocol: (§1) Introduction of the experimental principle: After the RAD51 inhibitor to be tested was co-incubated with human embryonic lung cells for a period of time, the influence of the test compound on cell proliferation was measured by a method for counting cell proliferation based on the quantitative measurement of intracellular ATP content.
Materials and Cells: WI-38 cells were purchased from ATCC; fetal bovine serum, 1640 medium and penicillin-streptomycin were purchased from Gibco Inc. (U.S.), 96-well plates were purchased from Corning Inc. (U.S.), and Cell-Titer Glo reagent was purchased from Promega Corporation (U.S.).
Cell culture: WI-38 cells were cultured in an EMEM culture medium containing 10% fetal bovine serum and 1% penicillin-streptomycin at 37° C. in an atmosphere containing 5% CO2. Cells in logarithmic growth phase could be used for experiments.
(§2) Assay of cell proliferation and viability: Cell-Titer Glo reagent was used to measure the inhibitory activities of the compounds on the proliferation of WI-38 cell strain. The concentration of cells was adjusted, and the cells were seeded in a 96-well plate and cultured at 37° C. in an atmosphere containing 5% CO2 for 24 hours. The powder of the compound was dissolved in 100% DMSO to form a 10 mM solution. 10 μl of the solution of the compound was aspirated and transferred into a 96-well compound plate containing 20 μl of DMSO solution in each well for 3-fold dilution and was then formulated to 10 serial dilutions. Thereafter, 2 μl of the solution of the compound was aspirated from the corresponding well and added correspondingly into a 96-well intermediate compound dilution plate containing 78 μl of complete culture medium in each well. The resultant was mixed well, and the plate was centrifuged at 1000 rpm for 1 minute. Finally, 10 μl of the solution of the compound was aspirated from the corresponding well of the 96-well intermediate compound dilution plate, and transferred into the corresponding well of the cell culture plate containing 90 μl of complete culture medium. The final concentration of DMSO was 0.25%. After the addition of the compound, the cells were continued to be incubated for 3 days at 37° C. in an atmosphere containing 5% CO2. Cell-Titer Glo reagent was added to measure cell viability.
% Compound inhibition was calculated and IC50 of the compound was fitted;
(§3) % Compound inhibition=1−100%×(Signal−Bottom)/(Top−Bottom)

Daudi cells = test: Inhibition of human Daudi lymphoma cell proliferation (Cell-Titer Glo); format: cell-based; details: Homo sapiens, 72 h, 3 days incubation, read-out: Anti-Proliferative Activity Against Daudi cells IC50
Protocol: as §1, with “cancer” for “human embryonic lung”
Materials and Cells: Daudi cells were purchased from ATCC; fetal bovine serum, 1640 medium and penicillin-streptomycin were purchased from Gibco Inc. (U.S.), 96-well plates were purchased from Corning Inc. (U.S.), and Cell-Titer Glo reagent was purchased from Promega Corporation (U.S.).
Cell culture: Daudi cells were cultured in 1640 culture medium containing 10% fetal bovine serum and 1% penicillin-streptomycin at 37° C. in an atmosphere containing 5% CO2. Cells in logarithmic growth phase could be used for experiments.
as §2, with “of Daudi” for “of WI-38”, “solution” for “solution in each well”, “formulated into” for “formulated to”
% Compound inhibition was calculated and IC50 of the compound was filled;
as §3

| SMILES | IC50 (Daudi cells) [nM] | IC50 (WI-38 cells) [nM] |
| --- | --- | --- |
| CC(C)OC(=O)Nc1ccc(-c2nnc([C@H]3CC[C@H](NC(=O)OC(C)C)CC3)s2)c(S(=O)(=O)NC(C)(C)C)c1 [Example 5, isopropyl trans-N-[3-(tert-butylsulfamoyl)-4-[5-[4-(isopropoxycarbonylamino)cyclohexyl]-1,3,4-thiadiazol-2-yl]phenyl]carbamate] | 1160 | > 25000 |
| CC(C)OC(=O)N[C@H]1CC[C@H](c2ncc(-c3ccc(Nc4cc[nH]n4)cc3S(=O)(=O)NC(C)(C)C)s2)CC1 [Example 22, isopropyl trans-(4-(5-(4-((1H-pyrazol-3-yl)amino)-2-(N-(tert-butyl)sulfamoyl)phenyl)thiazol-2-yl)cyclohexyl)carbamate] | 35 | 23300 |
| CC(C)OC(=O)NC1CCC(c2ncc(-c3ccc(N/C(=N/C#N)NCc4ccccc4)cc3S(=O)(=O)NC(C)(C)C)s2)CC1 (stereo not drawn) [Example 14, isopropyl trans-N-[4-[5-[4-[[(E)-N-benzyl-N′-cyanocarbamoylamino]amino]-2-(tert-butylsulfamoyl)phenyl]thiazol-2-yl]cyclohexyl]carbamate] | 450 | > 25000 |
| CC(C)OC(=O)N[C@H]1CC[C@H](c2ncc(-c3ccc(NC(=O)N4CCc5ccccc5C4)cc3S(=O)(=O)NC(C)(C)C)s2)CC1 [Example 12, isopropyl trans-N-[4-[5-[2-(tert-butylsulfamoyl)-4-(3,4-dihydro-1H-isoquinoline-2-carbonylamino)phenyl]thiazol-2-yl]cyclohexyl]carbamate] | 20 | > 25000 |
| Cc1cc(Nc2ccc(-c3cnc([C@H]4CC[C@H](NC(=O)OC(C)C)CC4)s3)c(S(=O)(=O)NC(C)(C)C)c2)n[nH]1 [Example 28, isopropyl trans-(4-(5-(2-(N-(tert-butyl)sulfamoyl)-4-((5-methyl-1H-pyrazol-3-yl)amino)phenyl)thiazol-2-yl)cyclohexyl)carbamate] | 48 | 15000 |
| CC(C)OC(=O)Nc1ccc(-c2cnc([C@H]3CC[C@H](NC(=O)OC(C)C)CC3)s2)c(NS(=O)(=O)C(C)(C)C)c1 [Example 19, isopropyl trans-N-[3-(tert-butylsulfonylamino)-4-[2-[4-(isopropoxycarbonylamino)cyclohexyl]thiazol-5-yl]phenyl]carbamate] | 960 | > 25000 |
| CC(C)OC(=O)Nc1ccc(-c2cnc(C3CC4CCC(C3)C4NC(=O)OC(C)C)s2)c(S(=O)(=O)NC(C)(C)C)c1 (stereo not drawn) [Example 21, isopropyl N-[3-(tert-butylsulfamoyl)-4-[2-[8-(isopropoxycarbonylamino)-3-bicyclo[3.2.1]octyl]thiazol-5-yl]phenyl]carbamate] | 440 | > 25000 |
| C=CC(=O)N=S(=O)(c1cc(NC(=O)OC(C)C)ccc1-c1cnc([C@H]2CC[C@H](NC(=O)OC(C)C)CC2)s1)C(C)C (relative stereo) [Example 4, isopropyl trans-N-[4-[2-[4-(isopropoxycarbonylamino)cyclohexyl]thiazol-5-yl]-3-(isopropyl-N-prop-2-enoyl-sulfonimidoyl)phenyl]carbamate] | 1010 | 7220 |
| CC(C)OC(=O)N[C@H]1CC[C@H](c2ncc(-c3ccc(NC(=O)COc4ccccc4)cc3S(=O)(=O)NC(C)(C)C)s2)CC1 [Example 15, isopropyl trans-N-[4-[5-[2-(tert-butylsulfamoyl)-4-[(2-phenoxyacetyl)amino]phenyl]thiazol-2-yl]cyclohexyl]carbamate] | 280 | > 25000 |
| CC(C)OC(=O)N[C@H]1CC[C@H](c2ncc(-c3ccc(NC(=O)C4CC4c4ccccc4)cc3S(=O)(=O)NC(C)(C)C)s2)CC1 (stereo partly drawn) [Example 18, isopropyl trans-N-[4-[5-[2-(tert-butylsulfamoyl)-4-[(2-phenylcyclopropanecarbonyl)amino]phenyl]thiazol-2-yl]cyclohexyl]carbamate] | 90 | > 25000 |

Continued, in another order:

| IC50 (Daudi cells) [nM] | SMILES | IC50 (WI-38 cells) [nM] |
| --- | --- | --- |
| 23 | CC(C)OC(=O)N[C@H]1CC[C@H](c2ncc(-c3ccc(Nc4cnn(CCF)c4)cc3P3(=O)CCC3)s2)CC1 [Example 104, isopropyl trans-(4-(5-(4-((1-(2-fluoroethyl)-1H-pyrazol-4-yl)amino)-2-(1-oxophosphetan-1-yl)phenyl)thiazol-2-yl)cyclohexyl)carbamate] | > 25000 |
| 330 | Cc1cc(Nc2ccc(-c3cnc([C@H]4CC[C@H](NC(=O)OC(C)C)CC4)s3)c(S(=O)(=O)C(C)C)c2)no1 [Example 37, isopropyl trans-(4-(5-(2-(isopropylsulfonyl)-4-((5-methylisoxazol-3-yl)amino)phenyl)thiazol-2-yl)cyclohexyl)carbamate] | > 25000 |
| 230 | CC(C)OC(=O)N[C@H]1CC[C@H](c2ncc(-c3ccc(Nc4cn(C)nn4)cc3S(=O)(=O)C(C)C)s2)CC1 [Example 39, isopropyl trans-(4-(5-(2-(isopropylsulfonyl)-4-((1-methyl-1H-1,2,3-triazol-4-yl)amino)phenyl)thiazol-2-yl)cyclohexyl)carbamate] | > 25000 |
| 340 | CC(C)OC(=O)N[C@H]1CC[C@H](c2ncc(-c3ccc(Nc4ccno4)cc3S(=O)(=O)NC(C)(C)C)s2)CC1 [Example 29, isopropyl trans-(4-(5-(2-(N-(tert-butyl)sulfamoyl)-4-(isoxazol-5-ylamino)phenyl)thiazol-2-yl)cyclohexyl)carbamate] | 18400 |
| 51 | Cc1cc(Nc2ccc(-c3cnc([C@H]4CC[C@H](NC(=O)OC(C)C)CC4)s3)c(S(=O)(=O)C(C)C)c2)n[nH]1 [Example 40, isopropyl trans-(4-(5-(2-(isopropylsulfonyl)-4-((5-methyl-1H-pyrazol-3-yl)amino)phenyl)thiazol-2-yl)cyclohexyl)carbamate] | 22900 |
| 16 | Cc1cc(Nc2ccc(-c3cnc([C@H]4CC[C@H](NC(=O)OC(C)C)CC4)s3)c(S(=O)(=O)C3CCOC3)c2)n[nH]1 (stereo partly drawn) [Example 115, isopropyl trans-(4-(5-(4-((5-methyl-1H-pyrazol-3-yl)amino)-2-((tetrahydrofuran-3-yl)sulfonyl)phenyl)thiazol-2-yl)cyclohexyl)carbamate] | > 25000 |
| 28 | Cc1cc(Nc2ccc(-c3cnc([C@H]4CC[C@H](NC(=O)OC(C)C)CC4)s3)c(S(=N)(=O)C3CCC3)c2)n[nH]1 (stereo partly drawn) [Example 101, isopropyl trans-(4-(5-(2-(cyclobutanesulfonimidoyl)-4-((5-methyl-1H-pyrazol-3-yl)amino)phenyl]thiazol-2-yl)cyclohexyl)carbamate] | > 25000 |
| 80 | Cc1cc(Nc2ccc(-c3cnc(C4CCC(NC(=O)OC(C)C)CC4)s3)c([S+]([O-])C3CC3)c2)n[nH]1 (stereo not drawn) [Example 52, isopropyl trans-N-[4-[5-[2-cyclopropylsulfinyl]-4-[(5-methyl-1H-pyrazol-3-yl)amino]phenyl]thiazol-2-yl]cyclohexyl]carbamate] |  |
| 36 | CC(C)OC(=O)N[C@H]1CC[C@H](c2ncc(-c3ccc(Nc4ncco4)cc3S(=N)(=O)C3CC3)s2)CC1 (stereo partly drawn) [Example 99, isopropyl trans-(4-(5-(2-(cyclopropanesulfonimidoyl)-4-(oxazol-2-ylamino)phenyl)thiazol-2-yl)cyclohexyl)carbamate] |  |
